Data as given in PMC4008422, “Cytotoxicity and activation of the Wnt/beta-catenin pathway in mouse embryonic stem cells treated with four GSK3 inhibitors” (BMC Research Notes, 2014).
Where two headings read alike, the source gives them in different places.

Columns and labels:
ES-D3 cells = experiment: Cell viability assay (MTT), ES-D3; format: cell-based, mouse; conditions: for viability reduced by: three days; for IC50: ES-D3 cells, three day treatment, medium devoid of LIF, reduced serum, read-out: IC50 (half maximal inhibitory concentration, cell viability)
Method: (§1) The medium was changed daily and the cells were passaged 2–3 times per week. […] A randomized control was performed with basal medium without growth factors and/or small molecules. Physiological activation of the Wnt/beta-catenin-pathway was tested in medium supplemented with 50 ng/ml Wnt3a.
(§2) The viability of the mouse ES cells was determined after exposure to different concentrations of GSK3 inhibitors for three days using the MTT assay. The decrease of MTT activity is a reliable metabolism-based test for quantifying cell viability; this decrease correlates with the loss of cell viability. 2,000 cells were seeded overnight on gelatine-coated 96-well plates in LIF-containing ES cell medium. […] Basal medium without GSK3 inhibitors or DMSO was used as control. All tested conditions were analyzed in triplicates.

ES-CCE cells = experiment: Cell viability assay (MTT), ES-CCE; format: cell-based, mouse; conditions: BIO 0.1-1 μM, others 1-10 μM, three days
Method: as §1, §2

Wnt/beta-catenin pathway [1] = experiment: Wnt/beta-catenin TOPFlash dual luciferase reporter assay, ES-D3; format: cell-based, mouse; conditions: 48 and 72 h, vs control and 50 ng/ml Wnt3a
Method: (§3) The Wnt/beta-catenin reporter assay was performed with the M50 Super 8× TOPFlash and M51 Super 8× FOPFlash vector containing the firefly luciferase gene under the control of TCF/LEF binding sites (M50 Super 8x TOPFlash) or mutated bindings sites (M51 Super 8× FOPFlash). 12,500 cells were seeded overnight on gelatine-coated 96-well plates in LIF-containing ES cell medium. On the next day the cells were transfected using Lipofectamine (Life Technologies) with one of the aforementioned vectors plus pGL4.75 [hRluc/CMV] (Promega) encoding the renilla luciferase reporter gene hRluc as a transfection control. […] The Dual-Luciferase® reporter assay system (Promega) was employed 48 and 72 h after medium change to follow the luminescence reaction using a GloMax®-multi detection system (Promega).
(§4) To assess the activation of the Wnt/beta-catenin signaling pathway by GSK3i, a dual luciferase reporter assay was used (Figure 2A/B). Mouse ES cells were transfected with the M50 TOPflash firefly luciferase vector, comprising seven TCF/LEF binding sites or as a negative control with the M51 FOPflash vector harboring mutated binding sites. To normalize the transfection efficiency, a hRluc/CMV vector with a constitutive expression of the renilla luciferase was used. Mouse ES cells of both lines were incubated with GSK3 inhibitors with concentrations close to the IC50 values calculated for the ES-D3 cell line. Dual luciferase luminescence was measured 48 and 72 h after cultivation with one of the inhibitors.

Wnt/beta-catenin pathway [2] = experiment: Wnt/beta-catenin TOPFlash dual luciferase reporter assay, ES-CCE; format: cell-based, mouse; conditions: 48 and 72 h, vs random controls and 50 ng/ml Wnt3a
Method: as §3, §4

T gene = experiment: qPCR gene expression of T in ES-D3 cells; format: cell-based, mouse; conditions: six day treatment, vs undifferentiated or randomly differentiated cells
Method: Total RNA was isolated from the cells using the RNeasy Kit (Qiagen, Hilden, Germany). Briefly, the cells were lysed in Qiazol (Qiagen), the hydrophilic phase was loaded onto RNA spin columns, and RNA was then prepared as instructed. cDNA synthesis was performed with random hexamer primers and 2 μg of the isolated total RNA following the manufacturer’s instructions. 10–20 ng of cDNA was then loaded in each well of a 384-well plate and specific primers were mixed with the GoTaq® PCR master mix according to the manufacturers’ instructions. Primer sequences were (5’-3’): T fw: […], rev: […], Nanog fw: […], rev: […], and Pou5f1 fw: […], rev: […]. Each qPCR amplification was performed in triplicates and the gathered data were normalized with qBasePlus (Biogazelle, Zwijnaarde, Belgium) against the housekeeping genes G6pdx, Tbp, and Tuba1a[10].

Brachyury = experiment: Immunofluorescence staining of Brachyury in ES-D3 cells; format: cell-based, mouse; conditions: for saturation of the concentration-response curve, Brachyury-positive cells: 0-10 μM CHIR-99021 or 0-2.5 μM CHIR-98014; for EC50: read-out: EC50 (Brachyury-positive cells)
Method: Immunofluorescence was performed according to standard procedures. ES cells were treated on 6-well plates with different GSK3 inhibitors and after 48 h 100,000 cells were re-seeded in each cavity of Matrigel-coated glass slides (Zellkontakt, Nörten-Hardenberg, Germany). After 24 h in medium the cells were fixed in 4% (w/v) paraformaldehyde for 45 min at 4°C. Subsequently, the cells were blocked for 20 min in PBS plus 0.2% Triton X-100, 6% BSA, and 1 mg/ml NaBH4. Primary and secondary antibodies were diluted in PBS with 0.1% Triton X-100 and 0.1% BSA. Primary antibodies were incubated on the slides for 2.5 h at room temperature (RT) or overnight at 4°C. Secondary antibodies were incubated on the slides for 1 h at RT. […] Secondary antibodies were obtained from Dianova (Hamburg, Germany). Finally, the slides were mounted with immunoselect antifading mounting medium containing DAPI (Dianova) to counterstain the nuclei. The stained cells were examined using an Olympus IX81 inverted microscope (Olympus, Hamburg, Germany).

Oct3/4 = experiment: Immunofluorescence staining of Oct3/4 in ES-D3 cells; format: cell-based, mouse; conditions: three day treatment
Method: Immunofluorescence was performed according to standard procedures. ES cells were treated on 6-well plates with different GSK3 inhibitors and after 48 h 100,000 cells were re-seeded in each cavity of Matrigel-coated glass slides (Zellkontakt, Nörten-Hardenberg, Germany). After 24 h in medium the cells were fixed in 4% (w/v) paraformaldehyde for 45 min at 4°C. Subsequently, the cells were blocked for 20 min in PBS plus 0.2% Triton X-100, 6% BSA, and 1 mg/ml NaBH4. Primary and secondary antibodies were diluted in PBS with 0.1% Triton X-100 and 0.1% BSA. Primary antibodies were incubated on the slides for 2.5 h at room temperature (RT) or overnight at 4°C. Secondary antibodies were incubated on the slides for 1 h at RT. The following primary antibodies were used: anti-Oct3/4 (sc-5279, Santa Cruz Biotechnology, Heidelberg, Germany) and anti-Brachyury (AF2085, R&D Systems, Minneapolis, MN, USA). Secondary antibodies were obtained from Dianova (Hamburg, Germany). Finally, the slides were mounted with immunoselect antifading mounting medium containing DAPI (Dianova) to counterstain the nuclei. The stained cells were examined using an Olympus IX81 inverted microscope (Olympus, Hamburg, Germany).

GSK3 = conditions: cell-free system; cited from earlier work
[3] = ES-D3, 5 μM, three day treatment

Compound | viability reduced by (ES-D3 cells; ES-D3, 1 μM) [%] | IC50 (ES-D3 cells) [nM] | toxicity (in words) (ES-CCE cells) | viability reduced by (ES-D3 cells; ES-D3, 2.5 μM) [%] | viability reduced by (ES-D3 cells; ES-D3, 5 μM) [%] | viability reduced by (ES-D3 cells; ES-D3, 7.5 μM) [%] | viability reduced by (ES-D3 cells; ES-D3, 10 μM) [%] | IC50 (ES-D3 cells; Mus musculus, 72 h) [nM] | activation of the Wnt/beta-catenin pathway (luminescence signal) (Wnt/beta-catenin pathway [1]; ES-D3, 5 μM) | activation of the Wnt/beta-catenin pathway (luminescence signal) (Wnt/beta-catenin pathway [2]; 5 μM) | T gene expression induction (T gene; ES-D3, 5 μM) | saturation of the concentration-response curve, Brachyury-positive cells (Brachyury; ES-D3, three day treatment) [%] | further results
O=C1Nc2cc(Br)ccc2/C1=C1/Nc2ccccc2/C1=N\O [BIO] | 83.5 | 480 | strongly cytotoxic | – | – | – | – | – | – | – | – | – | viability reduced by (ES-D3 cells; ES-D3, 0.25 μM): 25.7%; viability reduced by (ES-D3 cells; ES-D3, 0.5 μM): 58.7%; viability reduced by (ES-D3 cells; ES-D3, 0.75 μM): 68.7%; activation of the Wnt/beta-catenin pathway (luminescence signal) (Wnt/beta-catenin pathway [1]; ES-D3, 0.5 μM): did not result in a robust activation of the Wnt/beta-catenin pathway above controls; activation of the Wnt/beta-catenin pathway (luminescence signal) (Wnt/beta-catenin pathway [2]; 0.5 μM): comparable to that of negative or positive controls; T gene expression induction (T gene; ES-D3, 0.5 μM): up to 300 fold; Brachyury-positive cells (Brachyury; ES-D3, 0.5 μM, three day treatment): almost no Brachyury-positive cells; cells positive for Oct3/4 (Oct3/4; ES-D3, 0.5 μM): almost all cells were positive for Oct3/4
Cc1c[nH]c(-c2cnc(NCCNc3ccc(C#N)cn3)nc2-c2ccc(Cl)cc2Cl)n1 [CHIR-99021] | – | – | smallest reduction of the viability | 24.7 | 56.3 | 61.9 | 69.2 | 4900 | significant activation of the Wnt/beta-catenin pathway | only a significant increase at 72 h | up to 2,500 fold | 60 | Brachyury-positive cells (Brachyury; [3]): around 43%; EC50 (Brachyury; Mus musculus, 72 h): 3190 nM; selectivity as GSK3 inhibitor (GSK3): most selective GSK3 inhibitor
Cn1cc(C2=C(c3ccc(Cl)cc3Cl)C(=O)NC2=O)c2ccccc21 [SB-216763] | 1.7 | – | smallest reduction of the viability | 29.8 | 55.6 | 56.1 | 57.2 | 5700 | significantly increased compared to control cells but not to Wnt3a-incubated cells | comparable to that of negative or positive controls | up to 300 fold | – | cells double-positive for Brachyury and Oct3/4 (Brachyury; [3]): ~ 3%; cells positive for Oct3/4 (Oct3/4; ES-D3, 5 μM): all cells were positive for Oct3/4
CHIR-98014 | 52 | 1100 | – | – | – | – | – | – | – | – | – | 50 | activation of the Wnt/beta-catenin pathway (luminescence signal) (Wnt/beta-catenin pathway [1]; ES-D3, 1 μM): significant activation of the Wnt/beta-catenin pathway; activation of the Wnt/beta-catenin pathway (luminescence signal) (Wnt/beta-catenin pathway [2]; 1 μM): significant increase of Wnt-signaling after 48 and 72 h; T gene expression induction (T gene; ES-D3, 1 μM): up to 2,500 fold; Brachyury-positive cells (Brachyury; ES-D3, 1 μM, three day treatment): ~50%; EC50 (Brachyury; ES-D3, three day treatment, counting of stained cells): 320 nM
